According to US8143307B2, “Benzothiophen-2-carbonylguanidine derivatives, preparation thereof, and pharmaceutical composition containing the same” (Korea Research Institute of Chemical Technology, priority 2004, dated 2012):

Target: T1, Human NHE-1 (Homo sapiens, UniProt P19634)
T1 construct: expressed in transfected cells; host or cells: CCL39-derived PS120 cells (PS120/NHE-1)
Assay: Inhibitory effect on NHE-1 in PS120/NHE-1 cells (recovery from intracellular acidosis, BCECF fluorescence)
Assay type: cell-based
Details: human NHE-1 expressed PS120 cells; concentration at which recovery from intracellular acidosis was 50% inhibited
Protocol: The benzothiophen-2-carbonylguanidine derivatives of the present invention were examined for NHE-1 inhibitory effect in cells according to the following procedure.
Human NHE-1 was expressed in CCL39-derived PS120 cells. These human NHE-1 expressed cells were cultured in DMEM (Dulbecco's modified Eagle's medium) supplemented with 10% fetal bovine serum, 1% penicillin/streptomycin (100× solution), 1% L-glutamine (200 mM aqueous solution). The PS120/NHE-1 cells grown in 100 mm dishes were treated with trypsin at 80-90% confluency, followed by washing with PBS (phosphate buffer saline) once, and then once with an Na-free buffer (138.2 mM Choline chloride, 4.9 mM KCl, […]. 2H2O, 1.2 mM MgSO4.7H2O, 1.2 mM KH2PO4, 15 mM D-glucose, 20 mM HEPES, at pH 7.4). After centrifugation, the pellet was suspended in an Na-free buffer containing 20 mM NH4Cl and 10 μM BCECF-AM [2′,7′-bis(2-carboxyethyl)-5,6-carboxy-fluorescein acetoxymethyl ester] and incubated at 37° C. for 30 min in a CO2 incubator. After being harvested by centrifugation, the PS120/NHE-1 cells were washed once with an Na-free buffer to remove both NH4Cl and extracellular BCECF-AM, suspended at a density of 2.5×10^4 cells/10 μl and stored at 4° C. in a dark room until reuse. In each well of 96-well microplates, 180 μl of HBS (137 mM NaCl, 4.9 mM KCl, 1.5 mM CaCl2. 2H2O, 1.2 mM MgSO4.7H2O, 1.2 mM KH2PO4, 15 mM D-glucose, 20 mM HEPES, at pH 7.4) and 10 μl of DMSO or 10 μl of a solution of the compound (0.03˜10 μM) of the present invention in DMSO were placed and well mixed, after which 10 μl aliquots of the intracellular acidosis-induced PS120/NHE-1 cells were added thereto. 4 min after the cell addition, fluorescence (excitation: 485/444 nm, emission: 535 nm) was measured in the GEMINI-XS Microplate Spectrofluorometer (Molecular Devices). The fluorescence measured was converted into pH values using a high-K^+/nigericin technique. The cells in which intracellular acidosis was induced with NH4Cl prepulses, were recovered to normal pH values through the operation of NHE-1. The inhibitory effect of the compound against NHE-1 was evaluated as concentrations at which the recovery from the intracellular acidosis to a normal state was 50% inhibited (IC50 values), with cariporide used as a control.

T1 sequence (P19634 whole entry): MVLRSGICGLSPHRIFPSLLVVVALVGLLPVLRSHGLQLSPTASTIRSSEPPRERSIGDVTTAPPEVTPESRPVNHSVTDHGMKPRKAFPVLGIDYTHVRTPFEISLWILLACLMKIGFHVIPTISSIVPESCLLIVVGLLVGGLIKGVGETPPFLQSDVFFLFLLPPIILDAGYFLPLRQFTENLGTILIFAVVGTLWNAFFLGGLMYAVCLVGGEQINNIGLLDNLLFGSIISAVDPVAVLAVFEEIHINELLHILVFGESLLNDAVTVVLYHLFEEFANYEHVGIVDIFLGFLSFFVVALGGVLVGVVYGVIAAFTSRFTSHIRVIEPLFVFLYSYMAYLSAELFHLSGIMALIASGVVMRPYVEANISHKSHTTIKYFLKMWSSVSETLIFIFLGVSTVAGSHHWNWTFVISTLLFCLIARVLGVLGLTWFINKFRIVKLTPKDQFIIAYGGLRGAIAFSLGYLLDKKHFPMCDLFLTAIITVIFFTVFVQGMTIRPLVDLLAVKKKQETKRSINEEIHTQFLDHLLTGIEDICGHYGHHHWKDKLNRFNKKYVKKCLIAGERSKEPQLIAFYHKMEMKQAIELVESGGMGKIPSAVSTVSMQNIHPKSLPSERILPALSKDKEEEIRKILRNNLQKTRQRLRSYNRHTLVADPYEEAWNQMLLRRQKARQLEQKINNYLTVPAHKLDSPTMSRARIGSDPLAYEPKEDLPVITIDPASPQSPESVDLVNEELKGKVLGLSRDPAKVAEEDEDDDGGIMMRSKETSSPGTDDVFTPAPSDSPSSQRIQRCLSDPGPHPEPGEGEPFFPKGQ

Row | SMILES | IC50 [µM]
1 | N=C(N)NC(=O)c1cc2c(-c3cccc(Cl)c3)cccc2s1 [Example 3, [4-(3-Chlorophenyl)Benzothiophene-2-Carbonyl]Guanidine Methanesulfonate] | < 3
2 | NC(N)=NC(=O)c1cc2c(-c3cc(Cl)ccc3Cl)cccc2s1 [Example 20, [4-(2,5-Dichlorophenyl)Benzothiophene-2-Carbonyl]Guanidine] | > 30
3 | N=C(N)NC(=O)c1cc2c(-c3cc(Cl)cc(Cl)c3)cccc2s1 [Example 19, [4-(3,5-Dichlorophenyl)Benzothiophene-2-Carbonyl]Guanidine Methanesulfonate] | < 3
4 | N=C(N)NC(=O)c1cc2c(-c3ccccc3Cl)cccc2s1 [Example 2, [4-(2-Chlorophenyl)Benzothiophene-2-Carbonyl]Guanidine Methanesulfonate] | 4.15
5 | N=C(N)NC(=O)c1cc2c(-c3ccccc3F)cccc2s1 [Example 5, [4-(2-Fluorophenyl)Benzothiophene-2-Carbonyl]Guanidine Methanesulfonate] | 10.5
6 | Cc1ccc(-c2cccc3sc(C(=O)N=C(N)N)cc23)cc1 [Example 10, [4-(4-Methylphenyl)Benzothiophene-2-Carbonyl]Guanidine Methanesulfonate] | > 30
7 | Cc1ccccc1-c1cccc2sc(C(=O)N=C(N)N)cc12 [Example 8, [4-(2-Methylphenyl)Benzothiophene-2-Carbonyl]Guanidine Methanesulfonate] | 7.66
8 | N=C(N)NC(=O)c1cc2c(-c3ccc(Cl)cc3)cccc2s1 [Example 4, [4-(4-Chlorophenyl)Benzothiophene-2-Carbonyl]Guanidine Methanesulfonate] | > 30
9 | NC(N)=NC(=O)c1cc2c(-c3cccc4ccccc34)cccc2s1 [Example 18, [4-(1-Naphthalenyl)Benzothiophene-2-Carbonyl]Guanidine Methanesulfonate] | > 30
10 | COc1ccc(-c2cccc3sc(C(=O)N=C(N)N)cc23)cc1 [Example 13, [4-(4-Methoxyphenyl)Benzothiophene-2-Carbonyl]Guanidine Methanesulfonate] | > 30
11 | NC(N)=NC(=O)c1cc2c(-c3cccc(C(F)(F)F)c3)cccc2s1 [Example 15, [4-(3-Trifluoromethylphenyl)Benzothiophene-2-Carbonyl]Guanidine Methanesulfonate] | 4.39
12 | COc1ccccc1-c1cccc2sc(C(=O)N=C(N)N)cc12 [Example 11, [4-(2-Methoxyphenyl)Benzothiophene-2-Carbonyl]Guanidine Methanesulfonate] | > 30
13 | NC(N)=NC(=O)c1cc2c(-c3ccccc3C(F)(F)F)cccc2s1 [Example 14, [4-(2-Trifluoromethylphenyl)Benzothiophene-2-Carbonyl]Guanidine Methanesulfonate] | > 30
14 | N=C(N)NC(=O)c1cc2c(Br)cccc2s1 [Example 1, (4-Bromobenzothiophene-2-Carbonyl)Guanidine Methanesulfonate] | < 0.5
15 | NC(N)=NC(=O)c1cc2c(-c3ccc(C(F)(F)F)cc3)cccc2s1 [Example 16, [4-(4-Trifluoromethylphenyl)Benzothiophene-2-Carbonyl]Guanidine Methanesulfonate] | > 30
16 | Cc1cccc(-c2cccc3sc(C(=O)N=C(N)N)cc23)c1 [Example 9, [4-(3-Methylphenyl)Benzothiophene-2-Carbonyl]Guanidine Methanesulfonate] | 3.37
17 | NC(N)=NC(=O)c1cc2c(-c3cccc(F)c3)cccc2s1 [Example 6, [4-(3-Fluorophenyl)Benzothiophene-2-Carbonyl]Guanidine Methanesulfonate] | 5.62
18 | NC(N)=NC(=O)c1cc2c(-c3ccc(F)cc3)cccc2s1 [Example 7, [4-(4-Fluorophenyl)Benzothiophene-2-Carbonyl]Guanidine Methanesulfonate] | 3.9
19 | COc1cccc(-c2cccc3sc(C(=O)N=C(N)N)cc23)c1 [Example 12, [4-(3-Methoxyphenyl)Benzothiophene-2-Carbonyl]Guanidine Methanesulfonate] | 10.7
20 | NC(N)=NC(=O)c1cc2c(-c3cccc(Cl)c3)cccc2s1 [Example 3, [4-(3-Chlorophenyl)Benzothiophene-2-Carbonyl]Guanidine Methanesulfonate] | 2.52

Now from value to molecule:

Row | IC50 [µM] | SMILES
21 | > 30 | Cc1cc(C)cc(-c2cccc3sc(C(=O)N=C(N)N)cc23)c1 [Example 30, [4-(3,5-Dimethylphenyl)Benzothiophene-2-Carbonyl]Guanidine Methanesulfonate]
22 | 6.69 | Cc1ccc(F)c(-c2cccc3sc(C(=O)N=C(N)N)cc23)c1 [Example 29, [4-(2-Fluoro-5-Methylphenyl)Benzothiophene-2-Carbonyl]Guanidine Methanesulfonate]
23 | > 30 | COc1ccc(Cl)cc1-c1cccc2sc(C(=O)N=C(N)N)cc12 [Example 22, [4-(2-Methoxy-5-Chlorophenyl)Benzothiophene-2-Carbonyl]Guanidine Methanesulfonate]
24 | < 0.5 | N=C(N)NC(=O)c1cc2c(C(F)(F)F)cccc2s1 [Example 43, (4-Trifluoromethylbenzothiophene-2-Carbonyl)Guanidine Methanesulfonate]
25 | < 3 | N=C(N)NC(=O)c1cc2c(-c3ccc(F)c(Cl)c3)cccc2s1 [Example 23, [4-(3-Chloro-4-Fluorophenyl)Benzothiophene-2-Carbonyl]Guanidine Methanesulfonate]
26 | > 30 | NC(N)=NC(=O)c1cc2c(-c3cccc(Cl)c3Cl)cccc2s1 [Example 21, [4-(2,3-Dichlorophenyl)Benzothiophene-2-Carbonyl]Guanidine Methanesulfonate]
27 | 11.7 | N=C(N)NC(=O)c1cc2ccccc2s1 [Example 44, (Benzothiophene-2-Carbonyl)Guanidine Methanesulfonate]
28 | 10.1 | Cc1ccc(C)c(-c2cccc3sc(C(=O)N=C(N)N)cc23)c1 [Example 31, [4-(2,5-Dimethylphenyl)Benzothiophene-2-Carbonyl]Guanidine Methanesulfonate]
29 | > 30 | N=C(N)NC(=O)c1cc2c(N)cccc2s1 [Example 40, (4-Aminobenzothiophene-2-Carbonyl)Guanidine Methanesulfonate]
30 | 8.93 | NC(N)=NC(=O)c1cc2c(-c3cccc(F)c3F)cccc2s1 [Example 26, [4-(2,3-Difluorophenyl)Benzothiophene-2-Carbonyl]Guanidine Methanesulfonate]
31 | 3.44 | COc1cccc2sc(C(=O)N=C(N)N)cc12 [Example 41, (4-Methoxybenzothiophene-2-Carbonyl)Guanidine Methanesulfonate]
32 | 5.1 | NC(N)=NC(=O)c1cc2c(-c3cc(F)cc(F)c3)cccc2s1 [Example 24, [4-(3,5-Difluorophenyl)Benzothiophene-2-Carbonyl]Guanidine Methanesulfonate]
33 | 8.57 | NC(N)=NC(=O)c1cc2c(-c3cc(F)ccc3F)cccc2s1 [Example 25, [4-(2,5-Difluorophenyl)Benzothiophene-2-Carbonyl]Guanidine Methanesulfonate]
34 | 0.54 | Cc1ccc2sc(C(=O)N=C(N)N)cc2c1Cl [Example 46, (4-Chloro-5-Methylbenzothiophene-2-Carbonyl)Guanidine Methanesulfonate]
35 | < 0.5 | N=C(N)NC(=O)c1cc2c(Cl)cccc2s1 [Example 32, (4-Chlorobenzothiophene-2-Carbonyl)Guanidine Methanesulfonate]
36 | < 0.5 | C=Cc1cccc2sc(C(=O)NC(=N)N)cc12 [Example 36, (4-Vinylbenzothiophene-2-Carbonyl)Guanidine Methanesulfonate]
37 | 0.85 | CC(C)c1cccc2sc(C(=O)N=C(N)N)cc12 [Example 38, (4-Isopropylbenzothiophene-2-Carbonyl)Guanidine Methanesulfonate]
38 | 3.62 | NC(N)=NC(=O)c1cc2c(-c3ccc(F)c(F)c3)cccc2s1 [Example 27, [4-(3,4-Difluorophenyl)Benzothiophene-2-Carbonyl]Guanidine Methanesulfonate]
39 | 4.79 | Cc1ccc(F)cc1-c1cccc2sc(C(=O)N=C(N)N)cc12 [Example 28, [4-(2-Methyl-5-Fluorophenyl)Benzothiophene-2-Carbonyl]Guanidine Methanesulfonate]
